In patent US20110038997A1, “Method of processing poultry and other meat to reduce or eliminate Salmonella” (Birko Corporation, priority 2007, published 2011):

How the values were obtained:
Assay type in all cases: cell-based
Salmonella culture (M61) = test: Log kill of Salmonella M61 in suspension, acid treatment, quench and plating on Salmonella Shigella agar
Protocol: In each instance a target sample was employed using approximately 50 micro liters of a Salmonella culture (given the name “M61”) derived from a sample of chicken meal contaminated with chicken feces and approximately 1.5×10^7 cells per ml. […] The results obtained were consistent with the genus Salmonella.
(§1) The tests were performed at room temperature, e.g., 71 deg. […] The reaction was permitted to proceed for the time indicated for each test in Table 1, and was terminated by the introduction of a quench buffer comprising 4.2 M potassium phosphate buffer, pH 7.2. […] The plating medium was Salmonella Shigella agar, […]. The reduction in the bacteria count is expressed as the “log kill.” “Log kill” is generally defined as log10[initial cfu/ml]−log10[remaining cfu/ml].
An experiment was performed using the same protocol as in Example 1, except that the duration of treatment with the antimicrobial agent was maintained constant at 20 seconds. […] All tests were conducted at an ambient temperature of approximately 71 deg. F.
An experiment was performed using the same protocol as in Example 3. In this case, the target organism was a sample of “M61” Salmonella.

[1] = tested on: Salmonella enterica ATCC 14028; test: Log kill of Salmonella enterica ATCC 14028 in suspension, plating on tryptic soy agar; conditions: for Log Kill Salmonella (ATCC 14028) / Relative Kill Salmonella (ATCC 14028): 15 seconds
Protocol: as §1
Similar tests were performed using Salmonella enterica ATCC 14028 instead of the M61 Salmonella, and tryptic soy agar was employed instead of Salmonella Shigella agar.
The same tests were repeated using Salmonella enterica ATCC 14028 instead of the M61 Salmonella, and tryptic soy agar was employed instead of Salmonella Shigella agar.
The same tests were repeated using Salmonella enterica ATCC 14028 instead of Salmonella M61, and tryptic soy agar was employed instead of Salmonella shigella.
Another series of tests were performed as those resulting in Table VB, except that the acids were present in a total amount of 2%.

[2] = tested on: Escherichia coli (ATCC 12435); test: Log kill of E. coli ATCC 12435 by lactic/citric acid mixtures; conditions: 2.5% acid, total; 15 seconds, 76 deg F
Protocol: (§2) The tests were performed at room temperature, e.g., 71 deg. F. A reaction mixture was prepared including the Salmonella, water and the aqueous solution of lactic acid. The reaction was permitted to proceed for the time indicated for each test in Table 1, and was terminated by the introduction of a quench buffer comprising 4.2 M potassium phosphate buffer, pH 7.2. The results of the test were evaluated using a series of 10-fold dilutions as needed to determine, on a standard plating agar, the titer of bacteria that survived the antimicrobial treatment. The plating medium was Salmonella Shigella agar, a medium that would allow the growth of most bacteria. The reduction in the bacteria count is expressed as the “log kill.” “Log kill” is generally defined as log10[initial cfu/ml]−log10[remaining cfu/ml].
(§3) The duration of treatment was 15 seconds at an ambient temperature of 76 deg F.
The same tests were repeated using E. coli ATCC 12435 instead of the SAC-2 E. coli, and tryptic soy agar was employed instead of Salmonella Shigella agar.

Escherichia coli (SAC-2) = test: Log kill of E. coli SAC-2 by lactic/citric acid mixtures; conditions: 2.5% acid, total; 15 seconds, 76 deg F
Protocol: as §2
An experiment was performed using the same protocol as in Example 1. In this case, the target bacteria was a sample of E. coli (given the name “SAC-2”) taken from a local sewer facility. The isolate was characterized using standard microbiological methods including selective and indicative culture media and other metabolic tests. The results obtained were consistent with E. coli.
as §3

| SMILES | Salmonella (M61) Log Kill (Salmonella culture (M61); 2.5 wt % aqueous solution, 80 sec., room temperature 71 deg. F) [log kill] | performance compared to that of lactic acid, Salmonella M61 log kill (Salmonella culture (M61); 2.5 wt. % solution, 80 seconds) | Log Kill Salmonella (ATCC 14028) ([1]; 2.0% total acid) | Relative Kill Salmonella (ATCC 14028) ([1]; 2.0% total acid, 40/40 = 1) | Citric Acid Efficacy Log kill (75 F., 20 sec) ([1]; 2.5 % citric acid, Salmonella ATCC 14028, 75 F., 20 sec) | Salmonella (ATCC 14028) Log Kill ([1]; 2.5 wt % aqueous solution, 15 sec.) [log kill] | Log Kill Salmonella (ATCC 14028) ([1]; […] total acid) | Relative Kill Salmonella (ATCC 14028) ([1]; […] total acid, 80/0 = 1) | Log Kill Escherichia coli (ATCC 12435) [2] | Log Kill Escherichia coli (SAC-2) (Escherichia coli (SAC-2)) |
| --- | --- | --- | --- | --- | --- | --- | --- | --- | --- | --- |
| O=C(O)CC(O)(CC(=O)O)C(=O)O [citric acid] | 0.29 | poor | 0.444 | 0.663 | 0.555 | 0.56 | 0.322 | 0.422 | – | – |
| CC(O)C(=O)O (stereo not shown) [lactic acid] | – | – | – | – | – | – | – | – | 1.93 | 0.953 |
